# Assay results reported in patent US20140303092A1 (CHIMERIX, INC., priority 2011, published 2014).
# Experiments:
# CMV = test: In vitro antiviral activity in cell culture, CMV; format: cell-based, cytomegalovirus; details: dsDNA viruses including CMV and AdV
# AdV = test: In vitro antiviral activity in cell culture, AdV; format: cell-based; details: unidentified adenovirus
# VZV = test: In vitro antiviral activity in cell culture, VZV; format: cell-based, varicella-zoster virus; details: Human alphaherpesvirus 3
# [1] = Study HDP-CDV-106: safety and PK in subjects with impaired hepatic function; format: in vivo, human
# Protocol: Subjects with moderate hepatic impairment and matched healthy control subjects with normal hepatic function were enrolled and dosed first in Cohort 1, each receiving a single 200 mg dose of HDP-CDV under fasting conditions. The safety, tolerability and PK data from these subjects was reviewed prior to initiating dosing in subjects with severe hepatic impairment in Cohort 2. The study was conducted at four centers in the USA. Up to approximately 24 male and female subjects were planned to be enrolled in this study, including 8 subjects with moderate hepatic impairment and 8 matched healthy control subjects in Cohort 1 and 8 subjects with severe hepatic impairment in Cohort 2. The severity of hepatic impairment was assessed according to the Child-Pugh-Turcotte (CPT) score. Assessments are as follows: CPT Class B (moderate impairment) has a score of 7 to 9 points; and Class C (severe impairment) has a score of >9 points. For the purposes of this study, Cohort 2 subjects were required to have a CPT score of 10 or 11.
# [2] = in vivo
# [3] = Study HDP-CDV-201: GVHD reported as AE, weekly stage and grade, logistic regression versus dose; design: species or system human (HSCT recipients); details: human, in vivo
# Protocol: Because of the increased frequency of reports of acute GVHD in the BIW Cohorts of Study HDP-CDV-201, an in-depth analysis of reported GVHD was conducted. This analysis includes data from the following sources: Adverse events as reported in the eCRF, including GVHD and GI events; Weekly GVHD assessments (by stage, organ, and grade) as reported by the investigators on the GVHD module of the eCRF. […]
# For all subjects, the sites were instructed to record the presence or absence of GVHD, and stage and grade of GVHD, if present, at each visit on a separate eCRF page. […] Stage and grade of GVHD were evaluated per the NIH consensus guidelines (Przepiorka D, et al. Consensus conference on acute GVHD grading. Bone Marrow Transplant. 1995; 15(6): 825-828), which focus on the intensity of symptoms or laboratory abnormalities associated with GVHD (for example, the staging of GVHD of the intestine is based on the volume of diarrhea). […]
# P-gp = P-gp (Homo sapiens, UniProt P08183); test: P-gp inhibition in vitro; format: in vitro ADME; details: in vitro results
# P-gp, sequence (P08183 whole entry): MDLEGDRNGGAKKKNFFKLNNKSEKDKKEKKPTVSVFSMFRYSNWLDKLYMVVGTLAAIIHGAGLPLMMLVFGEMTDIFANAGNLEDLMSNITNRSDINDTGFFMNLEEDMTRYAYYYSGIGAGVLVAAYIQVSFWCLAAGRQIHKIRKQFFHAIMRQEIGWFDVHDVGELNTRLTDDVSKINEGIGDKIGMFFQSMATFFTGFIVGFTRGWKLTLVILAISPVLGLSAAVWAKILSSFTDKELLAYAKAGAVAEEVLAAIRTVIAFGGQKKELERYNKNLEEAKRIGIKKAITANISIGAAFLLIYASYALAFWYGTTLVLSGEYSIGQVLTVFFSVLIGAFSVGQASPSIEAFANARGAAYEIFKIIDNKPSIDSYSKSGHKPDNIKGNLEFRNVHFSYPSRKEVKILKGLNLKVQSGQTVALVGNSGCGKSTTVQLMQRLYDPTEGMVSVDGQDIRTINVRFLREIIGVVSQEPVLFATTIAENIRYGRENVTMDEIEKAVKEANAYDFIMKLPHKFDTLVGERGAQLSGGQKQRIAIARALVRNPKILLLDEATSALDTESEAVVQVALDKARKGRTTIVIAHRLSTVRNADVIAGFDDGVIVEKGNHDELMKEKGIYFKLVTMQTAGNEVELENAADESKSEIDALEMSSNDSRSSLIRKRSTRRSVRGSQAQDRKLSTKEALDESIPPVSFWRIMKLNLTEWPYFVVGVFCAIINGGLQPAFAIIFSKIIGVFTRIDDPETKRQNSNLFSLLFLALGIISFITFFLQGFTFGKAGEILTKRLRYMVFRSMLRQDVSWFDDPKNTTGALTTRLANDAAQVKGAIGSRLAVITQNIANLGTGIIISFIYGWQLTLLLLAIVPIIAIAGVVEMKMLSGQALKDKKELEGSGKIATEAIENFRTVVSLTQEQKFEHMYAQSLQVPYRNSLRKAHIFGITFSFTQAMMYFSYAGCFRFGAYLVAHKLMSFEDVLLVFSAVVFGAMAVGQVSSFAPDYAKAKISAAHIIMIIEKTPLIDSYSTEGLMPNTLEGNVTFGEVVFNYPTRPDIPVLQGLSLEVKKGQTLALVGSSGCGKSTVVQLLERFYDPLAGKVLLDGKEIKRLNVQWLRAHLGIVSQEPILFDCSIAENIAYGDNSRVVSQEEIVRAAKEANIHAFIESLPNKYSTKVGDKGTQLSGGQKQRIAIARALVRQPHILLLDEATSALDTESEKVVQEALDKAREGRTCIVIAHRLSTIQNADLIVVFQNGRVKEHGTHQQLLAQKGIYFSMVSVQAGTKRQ
# Source text: Due to this potential interaction, digoxin is excluded medication in Study HDP-CDV-301 (see Example 5).
# [4] = design: species or system human (healthy subjects); details: human, in vivo
# Protocol: For this reason, in Study HDP-CDV-201, HDP-CDV was administered to fasted subjects. […] For this reason, in future studies, HDP-CDV may be administered with a food whenever possible.
# However, the clinical significance of these findings is currently unknown and anecdotal reports indicate that gastrointestinal symptoms during HDP-CDV therapy may be mitigated by administration of HDP-CDV with food. […] In Study HDP-CDV-301, HDP-CDV is dosed with food; there is no restriction on the amount or type of food eaten. Therefore, evidence of the effectiveness of HDP-CDV is established in Study […] in subjects who receive HDP-CDV in the fed state.
# CYP3A = format: in vitro ADME
# [5] = rat, in vivo
# Source text: AME of ^14C-HDP-CDV Following Oral Administration to Bile Duct-Intact and Bile Duct-Cannulated Rats. In order to more fully define the CYP enzymes involved in HDP-CDV elimination, the disposition and metabolism of ^14C-radiolabeled-HDP-CDV was studied in bile-duct cannulated rats either with or without pretreatment with the broad-spectrum CYP inhibitor aminobenzotriazole (ABT). This study has completed the in-life phase and sample analysis is ongoing.
structure (smiles),measurement,setting,value
CCCCCCCCCCCCCCCCOCCCOP(=O)(O)COC(CO)Cn1ccc(N)nc1=O (stereo not shown) [HDP-CDV],"higher potency in comparison to cidofovir, ganciclovir and other nucleoside analogs",CMV,100 to 1000 fold
same,EC50,AdV,20 nM
same,EC50,VZV,0.4 nM
same,effect of hepatic impairment on percentage bound to plasma protein,"[1]; human, in vivo",did not affect
same,need for dose adjustment in hepatic disease,[1]; moderate or severe hepatic disease,no HDP-CDV dose adjustment is warranted
same,Minor increases in ALT,[2],2-5 fold
same,overall frequency of GVHD,[3],44 to 59%
same,inhibition of P-gp,P-gp,may inhibit P-gp
same,reduction of peak plasma concentration (Cmax),[4],48%
same,reduction of systemic exposure (AUCinf),[4],28%
same,"systemic exposure, tablet lower than oral solution",[4]; po,about 13%
same,inhibition of CYP3A activity in vitro,CYP3A,moderate inhibitor
same,administered radioactivity excreted in bile,[5],~8%
same,administered radioactivity excreted in feces,[5],~57%
same,administered radioactivity excreted in urine,[5],approximately 30%
same,radioactivity excreted in bile,[5],3%
same,radioactivity excreted in feces,[5],55%
same,radioactivity excreted in urine,[5],28%
same,recovery of radioactivity,[5],≥ 90%
